Measurements reported in patent US11427567B2, “Imidazolyl pyrimidinylamine compounds as CDK2 inhibitors” (Incyte Corporation, priority 2019, dated 2022).

Biological target: CDK2/Cyclin E1 (Homo sapiens (Human), UniProt P24941)
Assay: CDK2/Cyclin E1 HTRF enzyme activity assay (Example A)
Type: biochemical
Conditions: 1 mM ATP
Procedure: Assays were conducted in white 384-well polystyrene plates in a final reaction volume of 8 μL. […] HTRF signals were read after 1 hour at room temperature on a PHERAstar FS plate reader (BMG Labtech). Data was analyzed with IDBS XLFit and GraphPad Prism 5.0 software using a three or four parameter dose response curve to determine IC50 for each compound.

| IC50 | Compound |
| --- | --- |
| ≤ 50 nM | CN1CCN(CCc2ccc(-n3cnc(-c4nc(NC5CCN(S(C)(=O)=O)CC5)ncc4C(F)(F)F)c3)c(Cl)c2)CC1=O [Example 159, 4-(3-Chloro-4-(4-(2-((1-(methylsulfonyl)-piperidin-4-yl)-amino)-5-(trifluoro-methyl)pyrimidin-4-yl)-1H-imidazol-1-yl)phenethyl)-1-methylpiperazin-2-one] |
| ≤ 50 nM | CC1CN(Cc2ccc(-n3cnc(-c4nc(NC5CCN(S(C)(=O)=O)CC5)ncc4C(F)(F)F)c3)c(Cl)c2)C1 [Example 177, 4-(1-(2-Chloro-4-((3-methylazetidin-1-yl)methyl)phenyl)-1H-imidazol-4-yl)-N-(1-(methylsulfonyl)piperidin-4-yl)-5-(trifluoromethyl)pyrimidin-2-amine] |
| ≤ 50 nM | CS(=O)(=O)N1CCC(Nc2ncc(C(F)(F)F)c(-c3cn(-c4ccc(CN5CC(O)C5)cc4Cl)cn3)n2)CC1 [Example 199, 1-(3-Chloro-4-(4-(2-((1-(methylsulfonyl)-piperidin-4-yl)amino)-5-(trifluoromethyl)-pyrimidin-4-yl)-1H-imidazol-1-yl)benzyl)-azetidin-3-ol] |
| ≤ 50 nM | [2H]C([2H])([2H])N(Cc1ccc(-n2cc(-c3nc(NC4CCN(S(C)(=O)=O)CC4)ncc3C(F)(F)F)nc2C)c(F)c1)C([2H])([2H])[2H] [Example 280, 4-(1-(4-((Bis(methyl-d)amino)methyl)-2-fluorophenyl)-2-methyl-1H-imidazol-4-yl)-N-(1-(methylsulfonyl)piperidin-4-yl)-5-(trifluoromethyl)pyrimidin-2-amine] |
| ≤ 50 nM | CCNC(C)c1ccc(-n2cnc(-c3nc(NC4CCN(S(C)(=O)=O)CC4)ncc3C(F)(F)F)c2)c(Cl)c1 (stereo not shown) [Example 273, 4-(1-(2-Chloro-4-(1-(ethylamino)ethyl)phenyl)-1H-imidazol-4-yl)-N-(1-(methylsulfonyl)piperidin-4-yl)-5-(trifluoromethyl)pyrimidin-2-amine] |
| ≤ 50 nM | CCS(=O)(=O)N1CCC(Nc2ncc(C(F)(F)F)c(-c3cn(-c4cccnc4C#N)cn3)n2)CC1 [Example 89, 3-(4-(2-((1-(Ethylsulfonyl)piperidin-4-yl)amino)-5-(trifluoromethyl)pyrimidin-4-yl)-1H-imidazol-1-yl)picolinonitrile] |
| ≤ 50 nM | CC(C)(O)Cn1cnc(-c2nc(N[C@@H]3CCN(S(C)(=O)=O)C[C@H]3F)ncc2C(F)(F)F)c1 [Example 326, 1-(4-(2-(((3R,4R)-3-Fluoro-1-(methylsulfonyl)piperidin-4-yl)amino)-5-(trifluoromethyl)pyrimidin-4-yl)-1H-imidazol-1-yl)-2-methylpropan-2-ol] |
| ≤ 50 nM | CCNCc1ccc(-n2cnc(-c3nc(NC4CCN(S(C)(=O)=O)CC4)ncc3C(F)(F)F)c2)c(C(F)(F)F)c1 [Example 255, 4-(1-(4-((Ethylamino)methyl)-2-(trifluoromethyl)phenyl)-1H-imidazol-4-yl)-N-(1-(methylsulfonyl)piperidin-4-yl)-5-(trifluoromethyl)pyrimidin-2-amine] |
| ≤ 50 nM | COCCNc1ccc(-n2cnc(-c3nc(NC4CCN(S(C)(=O)=O)CC4)ncc3C(F)(F)F)c2)c(Cl)c1 [Example 144, 4-(1-(2-Chloro-4-((2-methoxyethyl)-amino)phenyl)-1H-imidazol-4-yl)-N-(1-(methylsulfonyl)-piperidin-4-yl)-5-(trifluoromethyl)-pyrimidin-2-amine] |
| ≤ 50 nM | C[C@@]1(O)CCN(Cc2ccc(-n3cnc(-c4nc(N[C@@H]5CCN(S(C)(=O)=O)C[C@H]5F)ncc4C(F)(F)F)c3)c(Cl)c2)C1 [Example 397, (R)-1-(3-Chloro-4-(4-(2-(((3R,4R)-3-fluoro-1-(methylsulfonyl)piperidin-4-yl)amino)-5-(trifluoromethyl)pyrimidin-4-yl)-1H-imidazol-1-yl)benzyl)-3-methylpyrrolidin-3-ol] |
| ≤ 50 nM | CN(C)CCOc1ccc(-n2cnc(-c3nc(N[C@H]4CCN(S(C)(=O)=O)C[C@H]4F)ncc3C(F)(F)F)c2)c(C#N)n1 [Example 53, 6-(2-(Dimethylamino)ethoxy)-3-(4-(2-(((3R,4S)-3-fluoro-1-(methylsulfonyl)piperidin-4-yl)amino)-5-(trifluoromethyl)pyrimidin-4-yl)-1H-imidazol-1-yl)picolinonitrile] |
| ≤ 50 nM | CNCCc1cccc(-n2cnc(-c3nc(NC4CCN(S(C)(=O)=O)CC4)ncc3C(F)(F)F)c2)c1Cl [Example 467, 4-(1-(2-Chloro-3-(2-(methylamino)ethyl)phenyl)-1H-imidazol-4-yl)-N-(1-(methylsulfonyl)piperidin-4-yl)-5-(trifluoromethyl)pyrimidin-2-amine] |
| ≤ 50 nM | CS(=O)(=O)N1CCC(Nc2ncc(C(F)(F)F)c(-c3ncn(-c4ccc(C#N)cc4Cl)c3Cl)n2)CC1 [Example 170, 3-Chloro-4-(5-chloro-4-(2-((1-(methylsulfonyl)piperidin-4-yl)amino)-5-(trifluoromethyl)pyrimidin-4-yl)-1H-imidazol-1-yl)benzonitrile] |
| ≤ 50 nM | CS(=O)(=O)N1CCC(Nc2ncc(C(F)(F)F)c(-c3cn(-c4cccc(CN5CC[C@@H](O)C5)c4Cl)cn3)n2)CC1 [Example 364, (R)-1-(2-Chloro-3-(4-(2-((1-(methyslulfonyl)piperidin-4-yl)amino)-5-(trifluoromethyl)pyrimi-din-4-yl)-1H-imidazol-1-yl)benzyl)pyrrolidin-3-ol] |
| ≤ 50 nM | CCNCc1cc(F)c(-n2cnc(-c3nc(NC4CCN(S(C)(=O)=O)CC4)ncc3C(F)(F)F)c2)c(F)c1 [Example 349, 4-(1-(4-((Ethylamino)methyl)-2,6-difluorophenyl)-1H-imidazol-4-yl)-N-(1-(methylsulfonyl)piperidin-4-yl)-5-(trifluoromethyl)pyrimidin-2-amine] |
| ≤ 50 nM | Cc1nc(-c2nc(NC3CCN(S(C)(=O)=O)CC3)ncc2C(F)(F)F)cn1-c1ccc(C2CN(CC3(O)CC3)C2)cc1F [Example 422, 1-((3-(3-Fluoro-4-(2-methyl-4-(2-((1-(methylsulfonyl)piperidin-4-yl)amino)-5-(trifluoromethyl)pyrimidin-4-yl)-1H-imidazol-1-yl)phenyl)azetidin-1-yl)methyl)cyclopropan-1-ol] |
| ≤ 50 nM | Cc1c(C#N)cccc1-n1cnc(-c2nc(NC3CCN(S(C)(=O)=O)CC3)ncc2C(F)(F)F)c1 [Example 43, 2-Methyl-3-(4-(2-((1-(methylsulfonyl)piperidin-4-yl)amino)-5-(trifluoromethyl)pyrimidin-4-yl)-1H-imidazol-1-yl)benzonitrile] |
| ≤ 50 nM | CCNCc1ccc(-n2cc(-c3nc(N[C@H]4CCN(S(C)(=O)=O)C[C@H]4F)ncc3C(F)(F)F)nc2C)c(F)c1 [Example 389, 4-(1-(4-((Ethylamino)methyl)-2-fluorophenyl)-2-methyl-1H-imidazol-4-yl)-N-((3R,4S)-3-fluoro-1-(methylsulfonyl)piperidin-4-yl)-5-(trifluoromethyl)pyrimidin-2-amine] |

| Compound | IC50 |
| --- | --- |
| CS(=O)(=O)N1CCC(Nc2ncc(C(F)(F)F)c(-c3cn(-c4ccc(CN5C6CCC5COC6)cc4Cl)cn3)n2)CC1 [Example 215, 4-(1-(4-((3-Oxa-8-azabicyclo[3.2.1]-octan-8-yl)methyl)-2-chlorophenyl)-1H-imidazol-4-yl)-N-(1-(methylsulfonyl)-piperidin-4-yl)-5-(trifluoromethyl)-pyrimidin-2-amine] | ≤ 50 nM |
